We go through 25 molecules from ChEMBL document CHEMBL5584206, “Discovery of (S)-3-(4-(benzyloxy)phenyl)-2-(2-phenoxyacetamido)propanoic acid derivatives as a new class of GPR34 antagonists” (Bioorg Med Chem Lett, 2024).

By IC50 is commonly meant the concentration that inhibits the measured activity by half. The EC50 is the concentration needed to bring the measured effect to its halfway point.

Series [1] has as its target T1, Probable G-protein coupled receptor 34 (Homo sapiens, UniProt Q9UPC5). The experiment in a line: Antagonist activity at GPR34 (unknown origin) by Glosensor cAMP assay. It counts as functional.
Series [2] concerns the target T2, P2Y purinoceptor 12 (Homo sapiens, UniProt Q9H244). The experiment in a line: Antagonist activity at P2Y12R (unknown origin). The series is classed as functional.
Series [3] in a line: Cytotoxicity against human LX2 cells incubated for 72 hrs by MTT assay. It counts as toxicity, cell-based. The settings on record: LX-2 cells. A general note: Formazan colour is commonly taken as a measure of viable cells.
Series [4] deals with T3, Lysophosphatidic acid receptor 4 (Homo sapiens, UniProt Q99677). Briefly: Agonist activity at LPAR4 (unknown origin). It counts as functional.
Series [5] deals with T3, Lysophosphatidic acid receptor 4. Briefly: Antagonist activity at LPAR4 (unknown origin). It counts as functional.
Series [6] concerns the target T4, Adenosine receptor A3 (Homo sapiens, UniProt P0DMS8).
T4 sequence (P0DMS8 whole entry): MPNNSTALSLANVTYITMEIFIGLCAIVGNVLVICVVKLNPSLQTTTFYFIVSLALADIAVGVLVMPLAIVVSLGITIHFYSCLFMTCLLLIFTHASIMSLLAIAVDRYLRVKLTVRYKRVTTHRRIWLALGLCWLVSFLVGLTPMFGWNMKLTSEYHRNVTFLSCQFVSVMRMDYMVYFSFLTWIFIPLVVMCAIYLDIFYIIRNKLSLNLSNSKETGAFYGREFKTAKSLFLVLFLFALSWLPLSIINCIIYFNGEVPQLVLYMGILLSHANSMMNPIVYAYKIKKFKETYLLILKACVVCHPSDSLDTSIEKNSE
The experiment in a line: Agonist activity at A3AR (unknown origin). The series is classed as functional.

Series [7] can be described thus: Acute toxicity in C57BL/6 mouse assessed as animal death at 200 mg/kg, ip. It counts as organism-based. The settings on record: in vivo.
Series [8] concerns the target T5, Lysophosphatidic acid receptor 3 (Homo sapiens, UniProt Q9UBY5).
T5 sequence (Q9UBY5 whole entry): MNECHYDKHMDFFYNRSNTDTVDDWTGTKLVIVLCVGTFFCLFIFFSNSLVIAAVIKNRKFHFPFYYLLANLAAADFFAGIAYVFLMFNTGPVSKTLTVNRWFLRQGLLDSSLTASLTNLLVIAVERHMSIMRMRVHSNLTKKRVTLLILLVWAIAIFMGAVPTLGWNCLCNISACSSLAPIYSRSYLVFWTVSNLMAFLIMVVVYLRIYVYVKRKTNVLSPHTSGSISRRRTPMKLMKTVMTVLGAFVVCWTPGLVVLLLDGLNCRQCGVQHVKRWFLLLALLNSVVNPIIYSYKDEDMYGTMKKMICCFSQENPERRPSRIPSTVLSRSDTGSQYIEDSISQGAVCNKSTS
The experiment in a line: Antagonist activity at LPAR3 (unknown origin). It counts as functional.

Series [9] has as its target T1, Probable G-protein coupled receptor 34. Briefly: Antagonist activity at GPR34 (unknown origin) by Tango assay. The series is classed as functional.
Series [10] has as its target T6, Cannabinoid receptor 2 (Homo sapiens, UniProt P34972). The experiment in a line: Agonist activity at CB2 (unknown origin). The series is classed as functional.
Series [11] deals with T5, Lysophosphatidic acid receptor 3. The experiment in a line: Agonist activity at LPAR3 (unknown origin). The series is classed as functional.
Series [12] is described as follows: Cytotoxicity against human BEAS-2B cells incubated for 72 hrs by MTT assay. The series is classed as toxicity, cell-based.
Series [13] addresses T7, C-X-C chemokine receptor type 5 (Homo sapiens, UniProt P32302).
T7 sequence (P32302 whole entry): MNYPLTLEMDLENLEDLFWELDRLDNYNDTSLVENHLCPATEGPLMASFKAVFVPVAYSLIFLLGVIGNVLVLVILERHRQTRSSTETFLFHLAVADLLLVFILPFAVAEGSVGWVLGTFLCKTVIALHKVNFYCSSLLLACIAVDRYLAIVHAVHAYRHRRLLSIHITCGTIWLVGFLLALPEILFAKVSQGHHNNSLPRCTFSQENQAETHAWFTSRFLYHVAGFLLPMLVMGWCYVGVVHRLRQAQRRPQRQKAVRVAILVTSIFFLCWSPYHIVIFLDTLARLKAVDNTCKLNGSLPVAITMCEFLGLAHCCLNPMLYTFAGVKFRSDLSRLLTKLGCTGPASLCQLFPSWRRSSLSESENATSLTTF
The experiment in a line: Antagonist activity at CXCR5 (unknown origin). It counts as functional.

The next series relates to Mus musculus. Briefly: Antinociceptive activity in mouse model of SNI-induced neuropathic pain assessed as reduction in mechanical allodynia at 10 to 20 mg/kg, ip bid. The series is classed as functional, organism-based. The settings on record: dose 10-20 mg/kg.
Series [14] addresses T2, P2Y purinoceptor 12. The experiment in a line: Agonist activity at P2Y12R (unknown origin). It counts as functional.
Series [15] in a line: Toxicity in C57BL/6 mouse assessed as body weight change at 100 mg/kg, ip bid for 6 days consecutively. It counts as organism-based. The settings on record: in vivo, 144 h, time 6 day.
Series [16] in a line: Cytotoxicity against HEK293 cells incubated for 72 hrs by MTT assay. The settings on record: human. It counts as toxicity, cell-based.
The nature of series [17]: Cytotoxicity against human Muller cells incubated for 72 hrs by MTT assay. The series is classed as toxicity, cell-based, Muller cell.
The nature of series [18]: Cytotoxicity against African green monkey COS-7 cells incubated for 72 hrs by MTT assay. It counts as toxicity, cell-based, Chlorocebus aethiops.
The target in series [19] is T4, Adenosine receptor A3. Briefly: Antagonist activity at A3AR (unknown origin). The series is classed as functional.
Series [20] can be described thus: Toxicity in C57BL/6 mouse assessed as indications of organ damage at 100 mg/kg, ip bid for 6 days consecutively. It counts as organism-based. The settings on record: in vivo, 144 h, time 6 day.
In series [21] the target is T7, C-X-C chemokine receptor type 5. The experiment in a line: Agonist activity at CXCR5 (unknown origin). It counts as functional.
A short description of series [22]: Cytotoxicity against human HUVEC cells incubated for 72 hrs by MTT assay. The series is classed as toxicity, cell-based.
In series [23] the target is T6, Cannabinoid receptor 2. The experiment in a line: Antagonist activity at CB2 (unknown origin). It counts as functional.

The source made the active and inactive calls. The rule behind the calls is not given here.

T1 sequence (Q9UPC5 whole entry): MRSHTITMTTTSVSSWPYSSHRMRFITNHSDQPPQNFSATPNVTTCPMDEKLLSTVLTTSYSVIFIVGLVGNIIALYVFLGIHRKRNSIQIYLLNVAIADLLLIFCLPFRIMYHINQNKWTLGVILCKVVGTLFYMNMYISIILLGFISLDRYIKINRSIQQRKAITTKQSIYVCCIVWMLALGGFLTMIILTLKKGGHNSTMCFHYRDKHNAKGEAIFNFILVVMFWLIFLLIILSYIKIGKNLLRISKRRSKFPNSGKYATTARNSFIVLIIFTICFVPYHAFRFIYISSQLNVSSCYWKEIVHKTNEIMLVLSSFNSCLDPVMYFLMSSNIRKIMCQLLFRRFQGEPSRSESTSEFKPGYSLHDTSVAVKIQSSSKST
T3 sequence (Q99677 whole entry): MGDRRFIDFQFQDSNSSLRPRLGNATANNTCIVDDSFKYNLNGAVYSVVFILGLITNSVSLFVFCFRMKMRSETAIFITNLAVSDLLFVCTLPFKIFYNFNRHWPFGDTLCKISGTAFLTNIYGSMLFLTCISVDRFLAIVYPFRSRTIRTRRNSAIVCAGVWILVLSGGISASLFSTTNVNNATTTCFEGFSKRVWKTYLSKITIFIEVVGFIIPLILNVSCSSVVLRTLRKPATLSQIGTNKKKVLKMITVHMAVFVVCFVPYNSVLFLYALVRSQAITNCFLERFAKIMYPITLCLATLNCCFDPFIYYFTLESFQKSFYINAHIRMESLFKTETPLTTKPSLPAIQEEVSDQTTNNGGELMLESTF
T6 sequence (P34972 whole entry): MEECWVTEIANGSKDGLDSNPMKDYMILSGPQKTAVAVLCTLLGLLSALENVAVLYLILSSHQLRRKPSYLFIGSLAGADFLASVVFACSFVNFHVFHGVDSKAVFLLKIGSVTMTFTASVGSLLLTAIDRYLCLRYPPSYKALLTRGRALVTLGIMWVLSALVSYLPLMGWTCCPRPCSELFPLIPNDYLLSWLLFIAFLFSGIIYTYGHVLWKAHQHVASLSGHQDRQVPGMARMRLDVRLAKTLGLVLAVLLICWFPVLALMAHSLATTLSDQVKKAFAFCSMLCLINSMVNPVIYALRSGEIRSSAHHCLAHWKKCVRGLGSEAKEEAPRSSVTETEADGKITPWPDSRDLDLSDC
T2 sequence (Q9H244 whole entry): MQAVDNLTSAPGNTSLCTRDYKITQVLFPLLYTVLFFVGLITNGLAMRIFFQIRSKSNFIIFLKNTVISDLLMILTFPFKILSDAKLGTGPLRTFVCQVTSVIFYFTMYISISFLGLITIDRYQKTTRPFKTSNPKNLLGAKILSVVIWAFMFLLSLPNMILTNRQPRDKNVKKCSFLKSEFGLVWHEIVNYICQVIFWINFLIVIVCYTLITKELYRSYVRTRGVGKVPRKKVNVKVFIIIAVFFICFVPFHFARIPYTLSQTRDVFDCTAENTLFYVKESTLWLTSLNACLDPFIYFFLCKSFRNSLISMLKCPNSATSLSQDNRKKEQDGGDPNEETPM

For the molecule `O=C(COc1ccccc1F)N[C@@H](Cc1ccc(OCc2ccccc2)cc1)C(=O)O`, the IC50 in series [1] was above 30 µM.

With `NC(=O)[C@H](Cc1ccc(OCc2ccccc2)cc1)NC(=O)COc1ccc(-c2cccc(Cl)c2)cc1`, in series [1], the IC50 was above 30 µM.

In the case of `O=C(COc1ccc(Cl)cc1)N[C@@H](Cc1ccc(OCc2ccccc2)cc1)C(=O)O`, the IC50 in series [1] is above 30 µM.

In series [1], `O=C(COc1ccc(-c2cccc(F)c2)cc1)N[C@@H](Cc1ccc(OCc2ccccc2)cc1)C(=O)O` came in with an IC50 of 1.28 µM.

Molecule `O=C(COc1cccc(F)c1)N[C@@H](Cc1ccc(OCc2ccccc2)cc1)C(=O)O` registered an IC50 in series [1] of 13.9 µM.

`COc1cccc(-c2ccc(OCC(=O)N[C@@H](Cc3ccc(OCc4ccccc4)cc3)C(=O)O)cc2)c1`: in series [1], the IC50 is above 30 µM.

On to `COc1cccc(OCC(=O)N[C@@H](Cc2ccc(OCc3ccccc3)cc2)C(=O)O)c1`, for which the IC50 in series [1] is above 30 µM.

In series [1], `Cn1nccc1-c1ccc(OCC(=O)N[C@@H](Cc2ccc(OCc3ccccc3)cc2)C(=O)O)cc1` showed an IC50 above 30 µM.

Take `N#Cc1cccc(OCC(=O)N[C@@H](Cc2ccc(OCc3ccccc3)cc2)C(=O)O)c1`: the IC50 in series [1] was 17.4 µM.

With `O=C(COc1ccc(-c2cccc(Cl)c2)cc1)N[C@@H](Cc1ccc(O)cc1)C(=O)O`, in series [1], the half-inhibitory concentration (IC50) was above 30 µM.

`O=C(COc1ccc(F)cc1)N[C@@H](Cc1ccc(OCc2ccccc2)cc1)C(=O)O` gave an IC50 in [1] of 11.6 µM.

With `O=C(COc1ccc(-c2cccc(Cl)c2)cc1)N[C@H](Cc1ccc(OCc2ccccc2)cc1)C(=O)O`, in series [1], half-maximal inhibition (IC50) was put at 2.98 µM.

In series [1], `O=C(COc1ccc(-c2ccc(Cl)cc2)cc1)N[C@@H](Cc1ccc(OCc2ccccc2)cc1)C(=O)O` yielded an IC50 of 1.57 µM.

Regarding `O=C(COc1ccc(-c2ccccc2F)cc1)N[C@@H](Cc1ccc(OCc2ccccc2)cc1)C(=O)O`, the concentration for half-maximal inhibition (IC50) in [1] is above 30 µM.

Consider `CC(C)c1ccc(OCC(=O)N[C@@H](Cc2ccc(OCc3ccccc3)cc2)C(=O)O)cc1`, for which the IC50 in series [1] was above 30 µM.

In series [1], `O=C(COc1ccc(-c2ccc(F)cc2)cc1)N[C@@H](Cc1ccc(OCc2ccccc2)cc1)C(=O)O` displayed an IC50 of 0.968 µM.

With `O=C(COc1ccccc1)N[C@@H](Cc1ccc(OCc2ccccc2)cc1)C(=O)O`, in series [1], the IC50 is above 30 µM.

`O=C(COc1ccc(-c2cccc(Cl)c2)cc1)N[C@@H](Cc1ccccc1)C(=O)O`: the IC50 in series [1] is above 30 µM.

The molecule `COC(=O)[C@H](Cc1ccc(OCc2ccccc2)cc1)NC(=O)COc1ccc(-c2cccc(Cl)c2)cc1` came in with an IC50 in [1] above 30 µM.

`O=C(COc1cccnc1)N[C@@H](Cc1ccc(OCc2ccccc2)cc1)C(=O)O` gave an IC50 in series [1] above 30 µM.

Turning to `Cc1ccc(OCC(=O)N[C@@H](Cc2ccc(OCc3ccccc3)cc2)C(=O)O)cc1`, the IC50 in [1] is above 30 µM.

As for `O=C(COc1ccc(-c2cccc(Cl)c2)cc1)N[C@@H](Cc1ccc(OCc2ccccc2)cc1)C(=O)O`, the EC50 (on P2Y purinoceptor 12 [2]; in series [4]; in series [5]; on Adenosine receptor A3 [6]; in [8]; at Cannabinoid receptor 2 [10]) was above 10 µM each time. Further, the EC50 (in series [11]; in series [13]; at P2Y purinoceptor 12 [14]; at Adenosine receptor A3 [19]; in series [21]; on Cannabinoid receptor 2 [23]) was above 10 µM each time. Moreover, the IC50 at 72 h in series [3], in series [12], in [16], in series [17], in [18] and in series [22] was above 30 µM throughout. In addition, the Activity result in series [7], in series [15] and in [20] was “Non-Toxic” each time. Moreover, the IC50 in series [9] was found to be 0.059 µM; in [1] it was 0.68 µM. For the same molecule, the result with Mus musculus was Active.

`O=C(COc1ccc(-c2cccc(Cl)c2)cc1)N[C@@H](CC1CCCCC1)C(=O)O` showed an IC50 in series [1] above 30 µM.

Molecule `O=C(COc1ccc(-c2cccc(C(F)(F)F)c2)cc1)N[C@@H](Cc1ccc(OCc2ccccc2)cc1)C(=O)O` had an IC50 in series [1] of 1.31 µM.

Turning to `C[C@H](NC(=O)COc1ccc(-c2cccc(Cl)c2)cc1)C(=O)O`, in [1], the IC50 is above 30 µM.
